Source: paper PMC7076710, “Synthesis, Identification, and Structure–Activity Relationship Analysis of GATA4 and NKX2-5 Protein–Protein Interaction Modulators” (Journal of Medicinal Chemistry, 2019)

Columns and labels:
Assay type in all cases: cell-based
[1] = target: T1, GATA4–NKX2-5 transcriptional synergy (Mus musculus, UniProt P42582+Q08369); experiment: GATA4–NKX2-5 transcriptional synergy luciferase reporter assay (3xNKE reporter, COS-1 cells); conditions: COS-1; 3 µM; luciferase reporter activity relative to control
T1 construct: expressed in transfected cells; host or cells: COS-1
T1 sequence (Q08369 whole entry): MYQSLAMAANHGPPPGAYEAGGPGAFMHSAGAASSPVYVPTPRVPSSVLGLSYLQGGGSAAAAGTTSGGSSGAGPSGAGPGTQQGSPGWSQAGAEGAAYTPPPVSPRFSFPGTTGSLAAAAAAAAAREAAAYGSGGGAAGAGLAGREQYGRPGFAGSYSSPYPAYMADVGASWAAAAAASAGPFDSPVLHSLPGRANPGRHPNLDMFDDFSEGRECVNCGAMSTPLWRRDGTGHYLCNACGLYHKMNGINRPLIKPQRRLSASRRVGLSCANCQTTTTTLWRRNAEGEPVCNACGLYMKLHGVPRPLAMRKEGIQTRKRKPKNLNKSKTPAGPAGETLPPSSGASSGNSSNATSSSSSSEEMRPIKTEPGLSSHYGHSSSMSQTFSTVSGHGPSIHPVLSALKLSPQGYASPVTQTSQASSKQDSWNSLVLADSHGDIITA
T1 sequence (P42582 whole entry): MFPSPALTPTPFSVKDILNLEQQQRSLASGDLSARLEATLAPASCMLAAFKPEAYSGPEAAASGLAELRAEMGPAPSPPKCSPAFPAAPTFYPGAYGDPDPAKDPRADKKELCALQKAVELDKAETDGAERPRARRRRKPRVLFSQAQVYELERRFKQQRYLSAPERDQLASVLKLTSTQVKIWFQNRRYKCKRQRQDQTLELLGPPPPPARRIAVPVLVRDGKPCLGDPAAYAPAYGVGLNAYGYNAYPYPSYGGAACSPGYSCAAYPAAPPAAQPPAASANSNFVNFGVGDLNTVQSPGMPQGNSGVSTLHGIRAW

[2] = target: T2, NKX2-5 transcriptional activity (Mus musculus, UniProt P42582); experiment: NKX2-5 luciferase reporter assay (3xNKE reporter, COS-1 cells); conditions: COS-1; 3 µM; luciferase reporter activity relative to control; read-out: NKX.3µM
T2 construct: expressed in transfected cells; host or cells: COS-1
T2 sequence (P42582 whole entry): as above
Procedure: (§1) To screen compounds for the GATA4–NKX2-5 interaction, we have developed a luciferase reporter assay based on their property to activate gene transcription synergistically through the NKX2-5 binding site on DNA.[28] In this assay, we transfected mammalian COS-1 cells with protein expression vectors for GATA4 and NKX2-5 proteins together with artificial luciferase reporter vector containing three high affinity binding sites for NKX2-5 (NKE). […] All 257 compounds were tested in two concentrations, 3 and 10 μM. Compounds either inhibited, enhanced, or had no effect on the GATA4–NKX2-5 transcriptional synergy. To investigate the selectivity of the active compounds, we tested their effects on NKX2-5 transcriptional activity by using the same luciferase reporter vector as in transcriptional synergy assay with three NKE sites (Figure 3B). Furthermore, we used GATA luciferase reporter assay to examine if compounds have an effect on GATA4 transcriptional activity. In this assay, we cotransfected the cells with a GATA4 protein expression vector and a reporter vector with tandem GATA4 binding sites (Figure 3C). Previously we have reported that compound 1 inhibited the GATA4–NKX2-5 transcriptional synergy at micromolar concentrations (IC50 = 3 μM).[29]
(§2) The plasmids expressing mouse GATA4 protein, pMT2-GATA4, and empty pMT2 were gifts from D. B. Wilson (Department of Pediatrics, St. Louis Children’s Hospital, St. Louis, MO).[44] The plasmids expressing mouse NKX2-5 protein, pMT2-NKX2-5, have been described earlier.[28] The luciferase reporter plasmid used in GATA4–NKX2-5 transcriptional synergy assay and NKX transcriptional assay, pGL3-3xHA, contains three high affinity binding sites for NKX2-5.[28] The luciferase reporter plasmid used in GATA transcriptional assay, NP-112, contains tandem GATA-sites and minimal promoter of rat brain natriuretic peptide (BNP) gene.[45] The pGL3-BNP luciferase reporter containing −534/+4 bp rat BNP proximal promoter described previously was used in hypertrophy assay.[46]
(§3) The primary screening assay of compounds’ effect on GATA4–NKX2-5 transcriptional synergy and COS-1 cell culturing has been described earlier.[33] […] (Kinnunen et al., unpublished observation). Briefly, COS-1 cells were seeded at 14 000 cells/well in Isoplate-96 microplates (PerkinElmer, Turku, Finland) and grown overnight. The cells were transfected with the luciferase reporter plasmid pGL3-3xHA 100 ng/well and equal amounts of expression plasmids pMT2-GATA4 and pMT2-NKX2-5 total 50 ng/well. To verify the synergistic effect, the cells were transfected with pMT2-GATA4 or pMT2-NKX2-5 25 ng/well, and the total DNA concentration was adjusted to 50 ng/well with empty pMT2 plasmid. In NKX2-5 and GATA4 luciferase reporter assays, the cells were transfected with reporter plasmid pGL3-3xHA or NP-112 (100 ng/well) and expression plasmid pMT2-NKX2-5 or pMT2-GATA4 (25 ng/well). The ratio of DNA/transfection reagent (Fugene 6, Promega) was 1:3 in all assays. The transfections were performed in serum and antibiotics free media for 6 h. The cells were treated with compounds or vehicle (0.1% DMSO) for 24 h, and the luminescence was measured using neolite Reporter Gene Assay System (PerkinElmer, Turku, Finland) and Victor2 plate reader (PerkinElmer, Turku, Finland).
(§4) Raw luciferase data were analyzed in Excel, and clear outliers were removed from triplicates by using the Grubb’s test. Data analysis was performed using R.[49] The luciferase data were first normalized on the basis of the combined mean value of controls. For data visualization and creation of figures, the following R packages were used: ggplot2, cowplot, RColorBrewer, and pheatmap. The heatmaps of the toxicity data were produced with GraphPad Prism 7.00 (GraphPad Software, La Jolla, CA). Statistical significance of luciferase reporter assay data was evaluated by randomized block analysis of variance followed by Dunnett’s post hoc test. […]

[3] = target: T3, GATA4 transcriptional activity (Mus musculus, UniProt Q08369); experiment: GATA4 luciferase reporter assay (tandem GATA-site reporter, COS-1 cells)
T3 construct: expressed in transfected cells; host or cells: COS-1
T3 sequence (Q08369 whole entry): as the sequence (Q08369 whole entry) above
Procedure: as §1, §2, §3, §4

COS-1 cells [4] = experiment: LDH assay (necrosis)
Source text: (§5) To investigate the toxicity as a potential cause of decreased or increased activity in luciferase reporter gene assays, we tested a set of 40 active compounds in the COS-1 cell line used for the luciferase assays. Concentration-dependent toxic effects were investigated using the lactate dehydrogenase (LDH) assay to detect necrosis and the 3-(4,5-dimethylthiazol-2-yl)-2,5-diphenyltetrazolium bromide (MTT) assay as a measure of cell viability. […] For the data analysis, compounds were classified as toxic (Figures 5 and 7) if they induced a >10% decrease in cell viability in the MTT assay at the concentration of 10 μM. The most toxic compounds (35a, 35d, 54, 58, and 63–65) in the MTT assay all contained a phenyl substituent in the southern part ring, while the ortho-nitrophenyl-derivative 39g and the phenyl-substituted thiophene 47t were nontoxic. Higher flexibility in the central parts of the ethers (35a, 35d) and N-acylated amines (58, 64) might contribute to their toxicity, because less rigid compounds are more likely to have affinity to various biological targets. Such interactions can cause toxicity. To confirm and validate the results from MTT assays, we tested three nontoxic (2, 47s, and 72) and three toxic (1, 35a, and 58) compounds in a cell viability assay measuring intracellular ATP content.
(§6) Figure 5 Effects of selected compounds on COS-1 cell viability. (A) Compound-induced necrosis was quantified with the LDH assay after a 24-h compound exposure. The data are presented as cytotoxicity percentage (% of maximal LDH release). (B) Cell viability was analyzed with the MTT assay after a 24-h compound exposure. (A,B) The data are means from 2–3 independent experiments with 3 replicate wells in each and are presented as % of control (vehicle-treated cells). The compounds have been grouped on the basis of the structure of the central part: a, amide; b, ether; c, N-acylated amine; d, amine; and e, imine. (C) The effects of selected compounds on cell viability as determined by ATP content after a 24-h compound exposure. The data are mean + SEM from three independent experiments and are presented as % of vehicle-treated cells.
(§7) For toxicity screening, COS-1 cells were cultured in DMEM (Sigma-Aldrich, Steinheim, Germany) supplemented with 10% fetal bovine serum, 100 U/mL penicillin, and 100 μg/mL streptomycin (all from Gibco, Thermo Scientific) at 37 °C with 5% CO2. The cells were plated on 96-well plates at 10 000 cells/well and exposed to test compounds at a concentration range of 1–30 μM on the following day. After a 24-h compound treatment, lactate dehydrogenase (LDH) and 3-(4,5-dimethylthiazol-2-yl)-2,5-diphenyltetrazolium bromide (MTT) assays were carried out as described previously.[48] Briefly, LDH activity was determined from 50 μL samples of cell culture medium, to which 50 μL of substrate solution [1.3 mM β-nicotinamide-adenine dinucleotide, 660 μM iodonitrotetrazolium, 54 mM L(+)-lactic acid, and 280 μM phenazine methosulfate in 0.2 M Tris-HCl, pH 8.2, all from Sigma-Aldrich] was added, and the plate was incubated for 30 min at room temperature. The reaction was stopped with acetic acid (final concentration 333 mM), and absorbance was measured at 490 nm. The absorbance values of the samples were normalized to maximal LDH release and spontaneous LDH release determined on the same plate. Mitochondrial metabolic activity was quantified by incubating the cells with 0.5 mg/mL MTT (from Sigma-Aldrich) for 2 h at 37 °C with 5% CO2, whereafter culture medium was removed and formazan crystals were dissolved in DMSO. The absorbance was measured at 550 nm, and absorbance at 650 nm was subtracted as background.

COS-1 cells [5] = experiment: MTT assay (cell viability); conditions: cell viability
Source text: as §5, §6, §7

[6] = COS-1, luciferase reporter activity relative to control

Row | Structure (SMILES) | activity at 3 µM [1] [%] | activity at 3 µM [2] [%] | activity at 3 µM [3, 6] [%] | LDH.1µM (COS-1 cells [4]) | LDH.3µM (COS-1 cells [4]) | LDH.10µM (COS-1 cells [4]) | LDH.30µM (COS-1 cells [4]) | MTT.1µM (COS-1 cells [5]) | MTT.3µM (COS-1 cells [5]) | MTT.10µM (COS-1 cells [5]) | MTT.30µM (COS-1 cells [5]) | activity at 10 µM ([3]; COS-1, 10 µM, luciferase reporter activity relative to control) [%] | GATA4 (% of control) Mean ± SD ([3]; 10 μM, COS-1 cells, 24 h)
1 | CCC(OC)c1ccc(OCc2c(-c3ccccc3)noc2C)cc1 (racemic) [Compound 34e, (rac)-4-[[4-(1-Methoxypropyl)phenoxy]methyl]-5-methyl-3-phenylisoxazole] | 79.7 | 104 | 101 | 1.31 | -0.22 | -0.78 | 0.55 | 102.33 | 95.44 | 86.07 | 79.5 | – | –
2 | CCN(CC)c1ccc(NC(=O)c2c(C)noc2-c2cc(C)on2)cc1 [Compound 3] | 75.5 | 106 | 96.7 | 0.35 | -0.67 | -1.59 | -1.83 | 105.34 | 105.48 | 100.7 | 92.68 | 102 | –
3 | Cc1onc(-c2ccccc2)c1C(=O)Nc1ccc2oc(-c3ccccc3)cc(=O)c2c1 [Compound 4g] | 62.6 | 85.2 | 40.2 | -0.29 | 0.38 | -0.94 | -0.1 | 109.72 | 101.99 | 88.31 | 82.48 | – | 66 % of control
4 | CCN(c1ccc(NC(=O)c2c(-c3ccccc3)noc2C)cc1)C(C)C [Compound 4i, N-[4-[Ethyl(isopropyl)amino]phenyl]-5-methyl-3-phenylisoxazole-4-carboxamide] | 64.9 | 55.3 | 84.1 | 0.82 | 0.18 | -0.77 | -0.17 | 100.09 | 98.4 | 87.88 | 85.16 | – | –
5 | Cc1onc(-c2ccccc2)c1C(=O)Nc1ccc(C#C[Si](C)(C)C)cc1 [Compound 4j, 5-Methyl-3-phenyl-N-[4-[(trimethylsilyl)ethynyl]phenyl]isoxazole-4-carboxamide] | 67.8 | 98.2 | 110 | 1.09 | 1.13 | 0.61 | 1.5 | 104.97 | 104.95 | 102.07 | – | – | –
6 | C=CCN(Cc1ccc(N(CC)CC)cc1)c1c(-c2ccccc2)noc1C [Compound 30b] | 84.5 | 97.2 | 82.8 | -1.6 | -0.27 | 1.75 | 3.61 | 104.18 | 97.12 | 96.41 | 84.34 | – | –
7 | CCN(CC)c1ccc(CN(C(=O)C(F)(F)F)c2c(-c3ccccc3)noc2C)cc1 [Compound 30c] | 100 | 113 | 92.4 | 1.2 | 0 | -0.99 | -1.08 | 100.8 | 97.78 | 91.24 | 75.4 | – | –
8 | CCN(CC)c1ccc(CNc2c(-c3ccccc3)noc2C)cc1 [Compound 33, N-[4-(Diethylamino)benzyl]-5-methyl-3-phenylisoxazol-4-amine] | 97.5 | 99 | 114 | 2.57 | 2.98 | 2.01 | 0.31 | 111.17 | 102.56 | 104.2 | 96.47 | – | –
9 | CCN(CC)c1ccc(NC(=O)c2snnc2-c2ccccc2)cc1 [Compound 47n] | – | 71.1 | 92.4 | 1.44 | 1.32 | 0.75 | 1.71 | 104.04 | 91.5 | 90.69 | 79.72 | – | –
